The record followed here is patent US12522602B2, “Derivatives having 2,3-dihydro-1H-indene or 2,3-dihydrobenzofuran moiety or pharmaceutically acceptable salt thereof and pharmaceutical compositions comprising the same” (YUHAN CORPORATION, priority 2019, dated 2026).

Read-outs that look alike come from different tables or passages of the source.

The test relates to GM1 production in Jurkat cells. As to the kind of experiment: cells. It counts as cell-based.

As to `CCCCOc1ccc(-c2cc3c(cc2OC)C(NC(=O)O[C@@H]2CN4CCC2CC4)C(C)(C)C3)cc1` (stereo partly drawn) [Example 324, (S)-quinuclidin-3-yl (5-(4-butoxyphenyl)-6-methoxy-2,2-dimethyl-2,3-dihydro-1H-inden-1-yl)carbamate], the IC50 (Homo sapiens, Jurkat, 72 h) stood at 5.8 nM.
In turn, `COc1cc2c(cc1-c1ccc(CC(C)C)cc1)CC(C)(C)C2NC(=O)O[C@@H]1CN2CCC1CC2` (stereo partly drawn) [Example 325, (S)-quinuclidin-3-yl (5-(4-isobutylphenyl)-6-methoxy-2,2-dimethyl-2,3-dihydro-1H-inden-1-yl)carbamate] registered a half-maximal inhibitory concentration (IC50) of 2.1 nM.
For the molecule `COc1cc2c(cc1-c1ccc(OCC3CC3)nc1)CC(C)(C)C2NC(=O)O[C@@H]1CN2CCC1CC2` (stereo partly drawn) [Example 326, (S)-quinuclidin-3-yl (5-(6-(cyclopropylmethoxy)pyridin-3-yl)-6-methoxy-2,2-dimethyl-2,3-dihydro-1H-inden-1-yl)carbamate], for the setting “Homo sapiens, Jurkat, 72 h”, 10.8 nM corresponded to half-maximal inhibition (IC50).
Still for that read-out and setting: the same measure for `COc1ccc(Cl)cc1-c1cc2c(cc1OC)C(NC(=O)O[C@@H]1CN3CCC1CC3)C(C)(C)C2` (stereo partly drawn) [Example 327, (S)-quinuclidin-3-yl (5-(5-chloro-2-methoxyphenyl)-6-methoxy-2,2-dimethyl-2,3-dihydro-1H-inden-1-yl)carbamate]: 16.8 nM; for `CCCCc1ccc(-c2cc3c(cc2OC)C(NC(=O)O[C@@H]2CN4CCC2CC4)C(C)(C)C3)cc1` (stereo partly drawn) [Example 328, (S)-quinuclidin-3-yl (5-(4-butylphenyl)-6-methoxy-2,2-dimethyl-2,3-dihydro-1H-inden-1-yl)carbamate]: 11.4 nM; for `COc1cc2c(cc1-c1cc(C)c(OC)c(C)c1)CC(C)(C)C2NC(=O)O[C@@H]1CN2CCC1CC2` (stereo partly drawn) [Example 329, (S)-quinuclidin-3-yl (6-methoxy-5-(4-methoxy-3,5-dimethylphenyl)-2,2-dimethyl-2,3-dihydro-1H-inden-1-yl)carbamate]: 65.8 nM.
For `CCOc1c(C)cc(-c2cc3c(cc2OC)C(NC(=O)O[C@@H]2CN4CCC2CC4)C(C)(C)C3)cc1C` (stereo partly drawn) [Example 330, (S)-quinuclidin-3-yl (5-(4-ethoxy-3,5-dimethylphenyl)-6-methoxy-2,2-dimethyl-2,3-dihydro-1H-inden-1-yl)carbamate], under “Homo sapiens, Jurkat, 72 h”, the IC50 is 52.7 nM.
`CCCCOc1c(C)cc(-c2cc3c(cc2OC)C(NC(=O)O[C@@H]2CN4CCC2CC4)C(C)(C)C3)cc1C` (stereo partly drawn) [Example 331, (S)-quinuclidin-3-yl (5-(4-butoxy-3,5-dimethylphenyl)-6-methoxy-2,2-dimethyl-2,3-dihydro-1H-inden-1-yl)carbamate] came in with a 50% inhibitory concentration (IC50) (Homo sapiens, Jurkat, 72 h) of 22.6 nM.
As to `COc1cc(-c2cc3c(cc2OC)C(NC(=O)O[C@@H]2CN4CCC2CC4)C(C)(C)C3)ccn1` (stereo partly drawn) [Example 332, (S)-quinuclidin-3-yl (6-methoxy-5-(2-methoxypyridin-4-yl)-2,2-dimethyl-2,3-dihydro-1H-inden-1-yl)carbamate], the IC50 (Homo sapiens, Jurkat, 72 h) was found to be 158 nM.
`COc1cc2c(cc1-c1cccc(F)c1)CC(C)(C)C2NC(=O)O[C@@H]1CN2CCC1CC2` (stereo partly drawn) [Example 333, (S)-quinuclidin-3-yl (5-(3-fluorophenyl)-6-methoxy-2,2-dimethyl-2,3-dihydro-1H-inden-1-yl)carbamate]: the half-maximal inhibitory concentration (IC50) (Homo sapiens, Jurkat, 72 h) amounted to 45 nM.
Still for that read-out and setting: with `CCc1cccc(-c2cc3c(cc2OC)C(NC(=O)O[C@@H]2CN4CCC2CC4)C(C)(C)C3)c1` (stereo partly drawn) [Example 334, (S)-quinuclidin-3-yl (5-(3-ethylphenyl)-6-methoxy-2,2-dimethyl-2,3-dihydro-1H-inden-1-yl)carbamate] the figure was 20.9 nM; with `COc1cc2c(cc1-c1cccc(CC(C)C)c1)CC(C)(C)C2NC(=O)O[C@@H]1CN2CCC1CC2` (stereo partly drawn) [Example 335, (S)-quinuclidin-3-yl (5-(3-isobutylphenyl)-6-methoxy-2,2-dimethyl-2,3-dihydro-1H-inden-1-yl)carbamate], 50.4 nM; with `COc1cc2c(cc1-c1cccc(C(C)C)c1)CC(C)(C)C2NC(=O)O[C@@H]1CN2CCC1CC2` (stereo partly drawn) [Example 336, (S)-quinuclidin-3-yl (5-(3-isopropylphenyl)-6-methoxy-2,2-dimethyl-2,3-dihydro-1H-inden-1-yl)carbamate], 48 nM.
In the case of `COc1cc2c(cc1-c1cccc(C(C)(C)C)c1)CC(C)(C)C2NC(=O)O[C@@H]1CN2CCC1CC2` (stereo partly drawn) [Example 337, (S)-quinuclidin-3-yl (5-(3-(tert-butyl)phenyl)-6-methoxy-2,2-dimethyl-2,3-dihydro-1H-inden-1-yl)carbamate], half-maximal inhibition (Homo sapiens, Jurkat, 72 h) (IC50) required 65 nM.
Molecule `COc1cccc(-c2cc3c(cc2OC)C(NC(=O)O[C@@H]2CN4CCC2CC4)C(C)(C)C3)c1` (stereo partly drawn) [Example 338, (S)-quinuclidin-3-yl (6-methoxy-5-(3-methoxyphenyl)-2,2-dimethyl-2,3-dihydro-1H-inden-1-yl)carbamate] displayed a 50% inhibitory concentration (IC50) (Homo sapiens, Jurkat, 72 h) of 53.7 nM.
As for `CCOc1cccc(-c2cc3c(cc2OC)C(NC(=O)O[C@@H]2CN4CCC2CC4)C(C)(C)C3)c1` (stereo partly drawn) [Example 339, (S)-quinuclidin-3-yl (5-(3-ethoxyphenyl)-6-methoxy-2,2-dimethyl-2,3-dihydro-1H-inden-1-yl)carbamate], the half-inhibitory concentration (IC50) (Homo sapiens, Jurkat, 72 h) is 62.5 nM.
Where the note is “Homo sapiens, Jurkat, 72 h”, `CCCOc1cccc(-c2cc3c(cc2OC)C(NC(=O)O[C@@H]2CN4CCC2CC4)C(C)(C)C3)c1` (stereo partly drawn) [Example 340, (S)-quinuclidin-3-yl (6-methoxy-2,2-dimethyl-5-(3-propoxyphenyl)-2,3-dihydro-1H-inden-1-yl)carbamate] gave an IC50 of 43.8 nM.
`COc1cc2c(cc1-c1cccc(OC(C)C)c1)CC(C)(C)C2NC(=O)O[C@@H]1CN2CCC1CC2` (stereo partly drawn) [Example 341, (S)-quinuclidin-3-yl (5-(3-isopropoxyphenyl)-6-methoxy-2,2-dimethyl-2,3-dihydro-1H-inden-1-yl)carbamate] showed a concentration for half-maximal inhibition (IC50) (Homo sapiens, Jurkat, 72 h) of 61.9 nM.
For the molecule `CCCCOc1cccc(-c2cc3c(cc2OC)C(NC(=O)O[C@@H]2CN4CCC2CC4)C(C)(C)C3)c1` (stereo partly drawn) [Example 342, (S)-quinuclidin-3-yl (5-(3-butoxyphenyl)-6-methoxy-2,2-dimethyl-2,3-dihydro-1H-inden-1-yl)carbamate], the IC50 (Homo sapiens, Jurkat, 72 h) is 21.6 nM.
In the case of `COc1cc2c(cc1-c1cccc(OCC(C)C)c1)CC(C)(C)C2NC(=O)O[C@@H]1CN2CCC1CC2` (stereo partly drawn) [Example 343, (S)-quinuclidin-3-yl (5-(3-isobutoxyphenyl)-6-methoxy-2,2-dimethyl-2,3-dihydro-1H-inden-1-yl)carbamate], where the note is “Homo sapiens, Jurkat, 72 h”, half-maximal inhibition (IC50) required 45.7 nM.
For the setting “Homo sapiens, Jurkat, 72 h”, `COc1ccc(OC)c(-c2cc3c(cc2OC)C(NC(=O)O[C@@H]2CN4CCC2CC4)C(C)(C)C3)c1` (stereo partly drawn) [Example 344, (S)-quinuclidin-3-yl (5-(2,5-dimethoxyphenyl)-6-methoxy-2,2-dimethyl-2,3-dihydro-1H-inden-1-yl)carbamate] displayed a half-inhibitory concentration (IC50) of 51 nM.
`COc1cc(OC)cc(-c2cc3c(cc2OC)C(NC(=O)O[C@@H]2CN4CCC2CC4)C(C)(C)C3)c1` (stereo partly drawn) [Example 345, (S)-quinuclidin-3-yl (5-(3,5-dimethoxyphenyl)-6-methoxy-2,2-dimethyl-2,3-dihydro-1H-inden-1-yl)carbamate] gave an IC50 (Homo sapiens, Jurkat, 72 h) of 45.7 nM.
On the same count and under the same terms, the same measure for `COc1ccc(-c2cc3c(cc2OC)C(NC(=O)O[C@@H]2CN4CCC2CC4)C(C)(C)C3)c(Cl)c1` (stereo partly drawn) [Example 346, (S)-quinuclidin-3-yl (5-(2-chloro-4-methoxyphenyl)-6-methoxy-2,2-dimethyl-2,3-dihydro-1H-inden-1-yl)carbamate]: 38.3 nM.

A word on the IC50: it is the concentration at which inhibition is half-maximal. A low value points to greater potency in that assay.
